The values below come from article PMC12068934 (Nature chemistry, 2024).

Assay [1] has as its target OvsA (Vreelandella halophila, UniProt A0A9X4Y9G9). Put plainly: LC-MS after mBBr derivatization. Format: biochemical. Particulars: histidine 1 mM, DTT 4 mM, pH 8, room temperature.
For assay [2], the target named is SenA (Variovorax paradoxus, UniProt A0ACH4EUD1). Put plainly: preparative enzymatic synthesis, product NMR. It counts as biochemical. Particulars: DTT 20 mM, pH 8, room temperature, 24 h.

SMILES strings stand for the structures.

Take `CC(=O)N[C@@H]1[C@@H](O)[C@H](O)[C@@H](CO)O[C@H]1[SeH]` [SeGlcNAc, N-acetyl-1-seleno-β-D-glucosamine]: the “LC-MS after mBBr derivatization” value in assay [1] is “reaction of the NHISS with SeGlcNAc and histidine resulted in rapid formation of a species”. The “preparative enzymatic synthesis, product NMR” value in assay [2] (hercynine 5 mM) was “large-scale reaction containing SenA and its substrates hercynine and SeGlcNAc”.

As to `C[N+](C)(C)[C@@H](Cc1cnc[nH]1)C(=O)[O-]` [hercynine, Nα-trimethylhistidine], the “preparative enzymatic synthesis, product NMR” value in assay [2] (SeGlcNAc 6 mM) was “large-scale reaction containing SenA and its substrates hercynine and SeGlcNAc”.
